# Experimental data from ChEMBL document CHEMBL5233210, “Pyrazolone structural motif in medicinal chemistry: Retrospect and prospect” (Eur J Med Chem, 2020).
# What was measured:
# [1] = test system: Ehrlich; test: Cytotoxicity against mouse Ehrlich ascites cells assessed as dead cells at 25 ug/ml; assay type: functional; conditions: dose 25 µg/ml
# [2] = test system: Ehrlich; test: Cytotoxicity against mouse Ehrlich ascites cells assessed as dead cells at 500 ug/ml; assay type: functional; conditions: dose 500 µg/ml
# [3] = test system: Ehrlich; test: Cytotoxicity against mouse Ehrlich ascites cells assessed as dead cells at 100 ug/ml; assay type: functional; conditions: dose 100 µg/ml
# [4] = test system: Candida albicans; test: Antifungal activity against Candida albicans; assay type: functional
# [5] = test system: Escherichia coli; test: Antibacterial activity against Escherichia coli; assay type: functional
# [6] = test system: Aspergillus niger; test: Antifungal activity against Aspergillus niger; assay type: functional
# [7] = Antioxidant activity assessed as ABTS radical scavenging activity; assay type: functional
# [8] = test system: Rattus norvegicus; test: Antiinflammatory activity against rat assessed as inhibition of carrageenan-induced paw edema relative to control; assay type: functional; set-up: concentration or dose not given beside the values
# [9] = test system: Pseudomonas aeruginosa; test: Antibacterial activity against Pseudomonas aeruginosa; assay type: functional
# [10] = test system: Aspergillus fumigatus; test: Antifungal activity against Aspergillus fumigatus; assay type: functional
# [11] = test system: Streptococcus pyogenes; test: Antibacterial activity against Streptococcus pyogenes; assay type: functional
# [12] = test system: Bacillus subtilis; test: Antibacterial activity against Bacillus subtilis; assay type: functional
# [13] = test system: Staphylococcus aureus; test: Antibacterial activity against Staphylococcus aureus; assay type: functional
# [14] = species on record: Ovis aries; test: Selectivity index, ratio of IC50 for ovine COX-1 to IC50 for ovine COX-2
# [15] = test system: MCF7; test: Cytotoxicity against human MCF7 cells; assay type: functional, cell-based
# [16] = test system: Rattus norvegicus; test: Antiinflammatory activity against rat assessed as inhibition of carrageenan-induced paw edema; assay type: functional
# [17] = test system: Pseudomonas aeruginosa; test: Antibacterial activity against Pseudomonas aeruginosa assessed as diameter of inhibition zone at 100 ppm; assay type: functional; conditions: read-out: DIZ
# [18] = test system: Streptococcus mutans; test: Antibacterial activity against Streptococcus mutans assessed as diameter of inhibition zone at 100 ppm; assay type: functional; conditions: read-out: DIZ
# [19] = test system: Candida albicans; test: Antifungal activity against Candida albicans assessed as diameter of inhibition zone at 100 ppm; assay type: functional; conditions: read-out: DIZ
# [20] = test system: Micrococcus luteus; test: Antibacterial activity against Micrococcus luteus assessed as diameter of inhibition zone at 100 ppm; assay type: functional; conditions: read-out: DIZ
# [21] = test system: Trichoderma viride; test: Antifungal activity against Trichoderma viride assessed as diameter of inhibition zone at 100 ppm; assay type: functional; conditions: read-out: DIZ
# [22] = test system: Bacillus subtilis; test: Antibacterial activity against Bacillus subtilis assessed as diameter of inhibition zone at 100 ppm; assay type: functional; conditions: read-out: DIZ
# [23] = test system: Salmonella typhi; test: Antibacterial activity against Salmonella typhi assessed as diameter of inhibition zone at 100 ppm; assay type: functional, Salmonella enterica subsp. enterica serovar Typhi; conditions: Salmonella enterica, read-out: DIZ
# [24] = test system: Salmonella paratyphi; test: Antibacterial activity against Salmonella paratyphi assessed as diameter of inhibition zone at 100 ppm; assay type: functional, Salmonella enterica subsp. enterica serovar Paratyphi A; conditions: Salmonella enterica, read-out: DIZ
smiles,measurement,setting,value
CC1=NNC(=O)/C1=N/Nc1sc2c(c1C#N)CCCC2,Activity,[1],29.8%
same,Activity,[2],53.3%
same,Activity,[3],84%
CC1=NN(C(=S)NN)C(=O)/C1=N/Nc1ccc(S(N)(=O)=O)cc1,MIC,[4],11.6 µg/mL
same,MIC,[5],125 µg/mL
same,MIC,[6],5.8 µg/mL
CC1=NN(c2nc(-c3ccccc3)cs2)C(=O)C1C(=S)Nc1ccccc1 (stereo not given),Activity,[7],88.6%
O=C1O[C@H]([C@@H](O)CO)C(O)=C1O,Activity,[7],88.2%
CC1=NN(c2ccccc2)C(=O)C1c1cc(-c2ccc(N(C)C)cc2)nc(N)n1 (stereo not given),Activity,[8],62%
CC1=NN(c2ccc([N+](=O)[O-])cc2[N+](=O)[O-])C(=O)C1c1cc(-c2ccc(N(C)C)cc2)nc(N)n1 (stereo not given),Activity,[8],62.05%
CC1=NN(C(=S)NN)C(=O)/C1=N/Nc1ccc(Cl)cc1,MIC,[4],15.6 µg/mL
same,MIC,[5],188 µg/mL
same,MIC,[6],5.8 µg/mL
CCOC(=O)c1c(N/N=C2/C(=O)NN=C2N)sc2c1CCCC2,Activity,[1],60%
same,Activity,[2],79%
same,Activity,[3],98.1%
CC1=NN(C(=S)NN)C(=O)/C1=N/Nc1ccc(C)cc1,MIC,[4],7.8 µg/mL
same,MIC,[5],125 µg/mL
same,MIC,[6],2.9 µg/mL
CC(C)CCC[C@@H](C)[C@H]1CC[C@H]2[C@@H]3C/C(=C4\C(=O)NN=C4N)C4CC(Cl)CC[C@]4(C)[C@H]3CC[C@]12C (stereo not given in full),MIC,[4],50 µg/mL
same,MIC,[5],100 µg/mL
same,MIC,[9],50 µg/mL
same,MIC,[10],50 µg/mL
same,MIC,[11],50 µg/mL
NC1=NNC(=O)C1C(CS(=O)(=O)Cc1ccccc1)c1ccccc1 (stereo not given),MIC,[12],25 µg/mL
same,MIC,[13],25 µg/mL
same,MIC,[6],50 µg/mL
COc1cc(-c2cc(C3C(=O)N(c4ccccc4)N=C3C)nc(N)n2)ccc1O (stereo not given),Activity,[8],61.23%
CCCCNc1nc2ccccc2n1C1=NN=C(O)C1,Activity,[8],61%
same,Ratio IC50,[14],4.84
CC1=NN(c2ccccc2)C(=O)C1c1cc(-c2ccc(O)cc2)nc(N)n1 (stereo not given),Activity,[8],61.84%
Cc1c(-n2cc3c(N)nnc-3n(-c3ccccc3)/c2=N\N)c(=O)n(-c2ccccc2)n1C,IC50,[15],45 µM
CC1=NN(c2nc(-c3ccccc3)cs2)C(=O)C1,Activity,[7],85.7%
Nc1cc(=O)n(C(=O)CN2N=C(C(F)(F)F)/C(=N/Nc3ccc(Cl)cc3)C2=O)[nH]1,MIC,[4],6.18 µg/mL
same,MIC,[5],12.7 µg/mL
same,MIC,[9],7.39 µg/mL
same,MIC,[13],7.3 µg/mL
same,MIC,[6],6.8 µg/mL
Nc1cc(=O)n(C(=O)CN2N=C(C(F)(F)F)/C(=N/Nc3ccc(Br)cc3)C2=O)[nH]1,MIC,[4],8.58 µg/mL
same,MIC,[5],13.3 µg/mL
same,MIC,[9],10.2 µg/mL
same,MIC,[13],7.96 µg/mL
same,MIC,[6],7.52 µg/mL
Cc1c(N/C=C2\C(=N)N(c3ccccc3)N=C2N)c(=O)n(-c2ccccc2)n1C,IC50,[15],60.7 µM
NS(=O)(=O)c1ccc(N/N=C2/C=NN(c3ccc(C(=O)O)cc3)C2=O)cc1,Activity,[8],72.72%
same,ED50,[16],79 µmol/kg
CCCC1=NN(c2c(F)c(F)cc(F)c2F)C(=O)/C1=C\c1cn(-c2ccccc2)nc1-c1cccs1,MIC,[4],> 1000 µg/mL
same,MIC,[12],125 µg/mL
same,MIC,[5],200 µg/mL
same,MIC,[9],250 µg/mL
same,MIC,[11],62.5 µg/mL
same,MIC,[13],125 µg/mL
same,MIC,[6],> 1000 µg/mL
NC(=O)c1c(N/N=C2/C(=O)NN=C2N)sc2c1CCCC2,Activity,[1],65%
same,Activity,[2],81%
same,Activity,[3],98.4%
O=C1CC(Nc2ccccc2NC(=S)NC2CCCCC2)=NN1,Activity,[8],56%
same,Ratio IC50,[14],4.73
Cc1c(-n2cc(C#N)c(=O)n(-c3ccccc3)/c2=N\c2ccccc2)c(=O)n(-c2ccccc2)n1C,IC50,[15],45 µM
N#Cc1c(N/N=C2/C(=O)NN=C2N)sc2c1CCCC2,Activity,[1],94%
same,Activity,[2],98.6%
same,Activity,[3],100%
Cc1[nH]n(-c2ccccc2)c(=O)c1C(c1ccc(Br)cc1)c1c(O)ccc2ccccc12 (stereo not given),zone of inhibition at 100 µg/mL,[17],14.5 mm
same,zone of inhibition at 100 µg/mL,[18],29.5 mm
same,zone of inhibition at 100 µg/mL,[19],15.5 mm
same,zone of inhibition at 100 µg/mL,[20],18.5 mm
same,zone of inhibition at 100 µg/mL,[21],13.5 mm
same,zone of inhibition at 100 µg/mL,[22],18.5 mm
same,zone of inhibition at 100 µg/mL,[23],19.5 mm
same,zone of inhibition at 100 µg/mL,[24],19.5 mm
